PMC6576746, “Rational discovery of dual-indication multi-target PDE/Kinase inhibitor for precision anti-cancer therapy using structural systems pharmacology” (PLoS Computational Biology, 2019)

Legend:
Assay in all cases: cells
Parameters in all cases: species or system panel of human cancer cell lines; Eurofins OncoPanel proliferation; nuclei count by high-content fluorescence imaging, 10-point dose response
A172 = conditions: Homo sapiens, A 172, 72 h, cell count, 3 days
Summary of the method: (§1)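 Cells in RPMI 1640/10% FBS or special medium received compound the day after seeding, with a time-zero plate; 3-day incubation at 37°C, 5% CO2. Nuclei imaged by fluorescence microscopy; 10 half-log doses from 100 μM, 0.1% DMSO. EC50, IC50, GI50 and activity area (0–10) from curve fits.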

BT20 = conditions: Homo sapiens, BT-20, 72 h, cell count, 3 days
Summary of the method: as §1

Y79 = conditions: Homo sapiens, Y79, 72 h, cell count, 3 days
Summary of the method: as §1

BCP-1 = conditions: BCP-1, 72 h, cell count, 3 days
Summary of the method: as §1

SNU-1 = conditions: Homo sapiens, SNU1, 72 h, cell count, 3 days
Summary of the method: as §1

HeLa = conditions: Homo sapiens, HeLa, 72 h, cell count, 3 days
Summary of the method: as §1

H9 = conditions: Homo sapiens, H9, 72 h, cell count, 3 days
Summary of the method: as §1

SJSA1 = conditions: Homo sapiens, SJSA-1, 72 h, cell count, 3 days
Summary of the method: as §1

PANC-1 = conditions: Homo sapiens, PANC-1, 72 h, cell count, 3 days
Summary of the method: as §1

Jiyoye = conditions: Homo sapiens, JIYOYE, 72 h, cell count, 3 days
Summary of the method: as §1

JeKo-1 = conditions: Homo sapiens, JeKo-1, 72 h, cell count, 3 days
Summary of the method: as §1

LS513 = conditions: Homo sapiens, LS-513, 72 h, cell count, 3 days
Summary of the method: as §1

Ramos (RA 1) = conditions: Homo sapiens, Ramos, 72 h, cell count, 3 days
Summary of the method: as §1

22Rv1 = conditions: Homo sapiens, 22Rv1, 72 h, cell count, 3 days
Summary of the method: as §1

[1] = 50% of maximum possible response

IC50 (BT20; [1]): > 100 µM
GI50 (BT20; corrected for time zero): 64.2 µM
EC50 (BT20; curve inflection point): > 100 µM
IC50 (SNU-1; [1]): 6.31 µM
GI50 (SNU-1; corrected for time zero): 5.53 µM
EC50 (SNU-1; curve inflection point): 5.52 µM
IC50 (HeLa; [1]): 91.2 µM
GI50 (HeLa; corrected for time zero): 75 µM
EC50 (HeLa; curve inflection point): 91.2 µM
IC50 (SJSA1; [1]): 41.9 µM
GI50 (SJSA1; corrected for time zero): 18.4 µM
EC50 (SJSA1; curve inflection point): 41.9 µM
IC50 (PANC-1; [1]): 80.9 µM
GI50 (PANC-1; corrected for time zero): 47 µM
EC50 (PANC-1; curve inflection point): 80.9 µM
IC50 (Ramos (RA 1); [1]): 24.1 µM
GI50 (Ramos (RA 1); corrected for time zero): 21.2 µM
EC50 (Ramos (RA 1); curve inflection point): 24.1 µM
IC50 (22Rv1; [1]): 55.6 µM
GI50 (22Rv1; corrected for time zero): 45.8 µM
EC50 (22Rv1; curve inflection point): 55.6 µM
SMILES: C[C@@H]1CC(=O)NN=C1c1ccc(NN=C(C#N)C#N)cc1 [levosimendan]
IC50 (A172; [1]): 55.8 µM
GI50 (A172; corrected for time zero): 44.8 µM
EC50 (A172; curve inflection point): 55.8 µM
IC50 (Y79; [1]): 36.2 µM
GI50 (Y79; corrected for time zero): 16 µM
EC50 (Y79; curve inflection point): 32.8 µM
IC50 (BCP-1; [1]): 12.6 µM
GI50 (BCP-1; corrected for time zero): 8.13 µM
EC50 (BCP-1; curve inflection point): 12.6 µM
IC50 (H9; [1]): 5.4 µM
GI50 (H9; corrected for time zero): 4.31 µM
EC50 (H9; curve inflection point): 4.92 µM
IC50 (Jiyoye; [1]): 62.5 µM
GI50 (Jiyoye; corrected for time zero): 54.6 µM
EC50 (Jiyoye; curve inflection point): 62.5 µM
IC50 (JeKo-1; [1]): 24.7 µM
GI50 (JeKo-1; corrected for time zero): 20.9 µM
EC50 (JeKo-1; curve inflection point): 24.6 µM
IC50 (LS513; [1]): 17.2 µM
GI50 (LS513; corrected for time zero): 14.7 µM
EC50 (LS513; curve inflection point): 17.2 µM
